Laboratory results published in PubChem BioAssay AID256 (DTP/NCI, 2004).
Values joined by “and” are separate entries in the source; they are usually repeats but may differ in a detail not shown here. Identical values can stand only once. Toxic doses and inconclusive results are not listed.

Test system: CD2F1 mice, L1210 leukemia ip, survival T/C
Assay: NCI In Vivo Anticancer Drug Screen. Data for tumor model L1210 Leukemia (intraperitoneal) in CD2F1 (CDF1) mice
Conditions: higher = longer survival
Outline: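 Antitumor effect is scored in animals hosting a serially transplanted tumor. Values compare compound-dosed animals against vehicle-only controls as a simple quotient.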

[1] = endpoint: mean survival time, dose: 100.0 mg/kg/injection, schedule: Q04DX003 (ip), vehicle: saline with Tween-80
[2] = endpoint: mean survival time, dose: 200.0 mg/kg/injection, schedule: Q04DX003 (ip), vehicle: saline with Tween-80
[3] = endpoint: mean survival time, dose: 400.0 mg/kg/injection, schedule: Q04DX003 (ip), vehicle: saline with Tween-80
[4] = endpoint: mean survival time, dose: 100.0 mg/kg/injection, schedule: Q01DX009 (ip), vehicle: saline with Tween-80
[5] = endpoint: mean survival time, dose: 200.0 mg/kg/injection, schedule: Q01DX009 (ip), vehicle: saline with Tween-80
[6] = endpoint: mean survival time, dose: 400.0 mg/kg/injection, schedule: Q01DX009 (ip), vehicle: saline with Tween-80
[7] = endpoint: mean survival time, dose: 100.0 mg/kg/injection, schedule: Q04DX002 (ip), vehicle: saline with Tween-80
[8] = endpoint: mean survival time, dose: 200.0 mg/kg/injection, schedule: Q04DX002 (ip), vehicle: saline with Tween-80
[9] = endpoint: mean survival time, dose: 400.0 mg/kg/injection, schedule: Q04DX002 (ip), vehicle: saline with Tween-80
[10] = endpoint: mean survival time, dose: 100.0 mg/kg/injection, schedule: Q01DX001 (ip), vehicle: saline
[11] = endpoint: mean survival time, dose: 200.0 mg/kg/injection, schedule: Q01DX001 (ip), vehicle: saline
[12] = endpoint: mean survival time, dose: 100.0 mg/kg/injection, schedule: Q01DX001 (ip), vehicle: saline with Tween-80
[13] = endpoint: mean survival time, dose: 200.0 mg/kg/injection, schedule: Q01DX001 (ip), vehicle: saline with Tween-80
[14] = endpoint: mean survival time, dose: 400.0 mg/kg/injection, schedule: Q01DX001 (ip), vehicle: saline with Tween-80
[15] = endpoint: mean survival time, dose: 6.25 mg/kg/injection, schedule: Q01DX009 (ip), vehicle: saline with Tween-80
[16] = endpoint: mean survival time, dose: 12.5 mg/kg/injection, schedule: Q01DX009 (ip), vehicle: saline with Tween-80
[17] = endpoint: mean survival time, dose: 25.0 mg/kg/injection, schedule: Q01DX009 (ip), vehicle: saline with Tween-80
[18] = endpoint: mean survival time, dose: 50.0 mg/kg/injection, schedule: Q01DX009 (ip), vehicle: saline with Tween-80
[19] = endpoint: mean survival time, dose: 25.0 mg/kg/injection, schedule: Q04DX003 (ip), vehicle: saline

For `CC(O)(CCCCCCCC(C)(O)c1ccccc1)c1ccccc1` (stereo not drawn), the T/C [1] was 113 % of control, the T/C [2] was 103 % of control and the T/C [3] was 88 % of control.
In the case of `CC1=[S+]c2ccccc2C2Nc3ccccc3C12` (stereo not drawn), the T/C (endpoint: mean survival time, dose: 100.0 mg/kg/injection, schedule: Q04DX003 (ip), vehicle: acetone) is reported as 103 % of control and the T/C (endpoint: mean survival time, dose: 200.0 mg/kg/injection, schedule: Q04DX003 (ip), vehicle: acetone) is reported as 105 % of control.
`O=C(O)/C=C\C(=O)Nc1ccccc1` was tested, and the T/C [4] was 93 % of control, the T/C [1] was 109 % of control and the T/C [5] was 96 % of control. For the same compound, the T/C [2] was 101 % of control, the T/C [6] was 96 % of control and the T/C [3] was 97 % of control.
In the case of `COC(=O)Nc1ccc(Cl)cc1[N+](=O)[O-]`, the T/C [7] is reported as 95 % of control, the T/C [8] is reported as 95 % of control and the T/C [9] is reported as 91 % of control.
`CC(=O)OC12C=C(C)C(C3C(=O)OC(=O)C31)C(C)(C)C2` (stereo not drawn) was tested, and the T/C [10] was 103 % of control and the T/C [11] was 101 % of control.
For `CC(C)CCCN`, the T/C [10] was 100 % of control, the T/C [11] was 97 % of control and the T/C (endpoint: mean survival time, dose: 400.0 mg/kg/injection, schedule: Q01DX001 (ip), vehicle: saline) was 97 % of control.
In the case of `COc1cc(C2=N/C(=C\c3ccc(C(C)C)cc3)C(=O)O2)cc(OC)c1OC`, the T/C [7] is reported as 90 % of control, the T/C [8] is reported as 90 % of control and the T/C [9] is reported as 94 % of control.
With `COc1ccc(COc2ccc([N+](=O)[O-])cc2)cc1OC` the T/C (endpoint: mean survival time, dose: 75.0 mg/kg/injection, schedule: Q04DX002 (ip), vehicle: saline with Tween-80) was 87 % of control and the T/C (endpoint: mean survival time, dose: 150.0 mg/kg/injection, schedule: Q04DX002 (ip), vehicle: saline with Tween-80) was 102 % of control.
With `CCCCCCCCC(O)CCCCCCCCC(=O)O` (stereo not drawn) the T/C [12] was 93 % of control, the T/C [13] was 87 % of control and the T/C [14] was 87 % of control.
For `O.O.O=C(O)CC(=O)O.[NH-]C1CCCCC1[NH-].[Pt+2]` (stereo not drawn), the T/C (endpoint: mean survival time, dose: 12.5 mg/kg/injection, schedule: Q04DX003 (ip), vehicle: dextrose) was 98 % of control.
For `Cc1ccc2c(c1)N=C(Nc1ccccc1)N=S2(C)=O` (stereo not drawn), the T/C [15] was 96 % of control and 104 % of control, the T/C [16] was 100 % of control and 107 % of control and the T/C [17] was 104 % of control. For the same compound, the T/C [18] was 90 % of control and 106 % of control, the T/C [4] was 101 % of control and the T/C [5] was 102 % of control.
For `CN(C)Cc1[c-]c(CN(C)C)ccc1.[Br][Pt]`, the T/C (endpoint: mean survival time, dose: 3.12 mg/kg/injection, schedule: Q04DX003 (ip), vehicle: saline) was 96 % of control, the T/C (endpoint: mean survival time, dose: 6.25 mg/kg/injection, schedule: Q04DX003 (ip), vehicle: saline) was 97 % of control and the T/C (endpoint: mean survival time, dose: 12.5 mg/kg/injection, schedule: Q04DX003 (ip), vehicle: saline) was 97 % of control. For the same compound, the T/C [19] was 108 % of control, the T/C (endpoint: mean survival time, dose: 50.0 mg/kg/injection, schedule: Q04DX003 (ip), vehicle: saline) was 97 % of control and the T/C (endpoint: mean survival time, dose: 100.0 mg/kg/injection, schedule: Q04DX003 (ip), vehicle: saline) was 105 % of control. The T/C (endpoint: mean survival time, dose: 200.0 mg/kg/injection, schedule: Q04DX003 (ip), vehicle: saline) was 100 % of control.
In the case of `CCC1(C)CCC2C(CCC3C(C)(C(=O)OC)CCCC23C)C12SCCS2` (stereo not drawn), the T/C [12] is reported as 86 % of control, the T/C [13] is reported as 89 % of control and the T/C [14] is reported as 96 % of control.
In the case of `CN(C)C(=O)C(O)C1CCCCC1` (stereo not drawn), the T/C [7] is reported as 94 % of control, the T/C [8] is reported as 94 % of control and the T/C [9] is reported as 94 % of control.
`C[Si](C)(CCl)N[Si](C)(C)CCl` was tested, and the T/C [4] was 100 % of control, the T/C [1] was 98 % of control and the T/C [5] was 97 % of control. For the same compound, the T/C [2] was 96 % of control, the T/C [6] was 100 % of control and the T/C [3] was 102 % of control.
In the case of `NN=C1c2ccccc2-c2ccccc21`, the T/C [1] is reported as 94 % of control, the T/C [2] is reported as 86 % of control and the T/C [3] is reported as 96 % of control.
For `N=C(N)c1ccc(Nc2ccc(-c3cc4ccc(C(=N)N)cc4[nH]3)cc2)cc1`, the T/C (endpoint: median survival time, dose: 3.75 mg/kg/injection, schedule: Q01DX005 (ip), vehicle: saline) was 326 % of control, the T/C (endpoint: median survival time, dose: 4.5 mg/kg/injection, schedule: Q01DX005 (ip), vehicle: saline) was 168 % of control and the T/C (endpoint: median survival time, dose: 7.5 mg/kg/injection, schedule: Q01DX005 (ip), vehicle: saline) was 182 % of control and 271 % of control. The T/C (endpoint: median survival time, dose: 12.49 mg/kg/injection, schedule: Q01DX005 (ip), vehicle: saline) was 150 % of control and the T/C (endpoint: median survival time, dose: 20.83 mg/kg/injection, schedule: Q01DX005 (ip), vehicle: saline) was 101 % of control.
For `COC(=O)c1nc2ccccc2cc1C#N`, the T/C [10] was 97 % of control and the T/C [11] was 96 % of control.
For `C#CCCCN1CCC2(CC1)C(=O)N(C(=O)N(C)C)CN2c1ccccc1`, the T/C [17] was 100 % of control, the T/C [18] was 96 % of control and the T/C [4] was 97 % of control.
With `O=[N+]([O-])O.O=[N+]([O-])O.[Cu].c1ccc(CN2CCN(Cc3ccccc3)CCN(Cc3ccccc3)CCN(Cc3ccccc3)CC2)cc1` the T/C (endpoint: mean survival time, dose: 6.25 mg/kg/injection, schedule: Q01DX001 (ip), vehicle: Klucel (hydroxypropylcellulose) (HPC)) was 91 % of control, the T/C (endpoint: mean survival time, dose: 12.5 mg/kg/injection, schedule: Q01DX001 (ip), vehicle: Klucel (hydroxypropylcellulose) (HPC)) was 94 % of control and the T/C (endpoint: mean survival time, dose: 25.0 mg/kg/injection, schedule: Q01DX001 (ip), vehicle: Klucel (hydroxypropylcellulose) (HPC)) was 108 % of control. For the same compound, the T/C (endpoint: mean survival time, dose: 50.0 mg/kg/injection, schedule: Q01DX001 (ip), vehicle: Klucel (hydroxypropylcellulose) (HPC)) was 100 % of control.
For `Cc1ccc2c(c1)C1(C)OC(C=CC1=O)O2` (stereo not drawn), the T/C (endpoint: median survival time, dose: 3.12 mg/kg/injection, schedule: Q01DX005 (ip), vehicle: Klucel (hydroxypropylcellulose) (HPC)) was 106 % of control, the T/C (endpoint: median survival time, dose: 6.25 mg/kg/injection, schedule: Q01DX005 (ip), vehicle: Klucel (hydroxypropylcellulose) (HPC)) was 101 % of control and the T/C (endpoint: median survival time, dose: 12.5 mg/kg/injection, schedule: Q01DX005 (ip), vehicle: Klucel (hydroxypropylcellulose) (HPC)) was 105 % of control. The T/C (endpoint: median survival time, dose: 25.0 mg/kg/injection, schedule: Q01DX005 (ip), vehicle: Klucel (hydroxypropylcellulose) (HPC)) was 101 % of control and 105 % of control and the T/C (endpoint: median survival time, dose: 50.0 mg/kg/injection, schedule: Q01DX005 (ip), vehicle: Klucel (hydroxypropylcellulose) (HPC)) was 103 % of control.
With `Nc1ncnc2snnc12` the T/C (endpoint: mean survival time, dose: 100.0 mg/kg/injection, schedule: Q01DX001 (ip), vehicle: Klucel (hydroxypropylcellulose) (HPC)) was 100 % of control, the T/C (endpoint: mean survival time, dose: 200.0 mg/kg/injection, schedule: Q01DX001 (ip), vehicle: Klucel (hydroxypropylcellulose) (HPC)) was 96 % of control and the T/C (endpoint: mean survival time, dose: 400.0 mg/kg/injection, schedule: Q01DX001 (ip), vehicle: Klucel (hydroxypropylcellulose) (HPC)) was 100 % of control.
In the case of `C=C[CH2][Sn]([CH2]C=C)([CH2]CCC)[CH2]CCC`, the T/C [15] is reported as 95 % of control, the T/C [16] is reported as 100 % of control and the T/C [17] is reported as 94 % of control.
For `CN(C)c1ccc(C(=N)c2ccc(N(C)C)cc2)cc1` (tested in a mixture with another compound), the T/C [16] was 98 % of control and the T/C [18] was 93 % of control.
`CC(=O)SCCCCl` was tested, and the T/C (endpoint: mean survival time, dose: 100.0 mg/kg/injection, schedule: Q01DX009 (ip), vehicle: saline) was 97 % of control and the T/C (endpoint: mean survival time, dose: 200.0 mg/kg/injection, schedule: Q01DX009 (ip), vehicle: saline) was 101 % of control.
In the case of `CN(C)N=Nc1ccc(C#N)cc1`, the T/C (endpoint: mean survival time, dose: 7.37 mg/kg/injection, schedule: Q01DX009 (ip), vehicle: Klucel (hydroxypropylcellulose) (HPC)) is reported as 100 % of control, the T/C (endpoint: mean survival time, dose: 14.75 mg/kg/injection, schedule: Q01DX009 (ip), vehicle: Klucel (hydroxypropylcellulose) (HPC)) is reported as 100 % of control and the T/C (endpoint: mean survival time, dose: 29.5 mg/kg/injection, schedule: Q01DX009 (ip), vehicle: Klucel (hydroxypropylcellulose) (HPC)) is reported as 108 % of control. For the same compound, the T/C (endpoint: mean survival time, dose: 59.0 mg/kg/injection, schedule: Q01DX009 (ip), vehicle: Klucel (hydroxypropylcellulose) (HPC)) was 108 % of control and the T/C (endpoint: mean survival time, dose: 118.0 mg/kg/injection, schedule: Q01DX009 (ip), vehicle: Klucel (hydroxypropylcellulose) (HPC)) was 120 % of control and 107 % of control.
`CN(C)CCCNC(=S)S` was tested, and the T/C (endpoint: mean survival time, dose: 6.0 mg/kg/injection, schedule: Q04DX003 (ip), vehicle: saline) was 95 % of control, the T/C (endpoint: mean survival time, dose: 12.0 mg/kg/injection, schedule: Q04DX003 (ip), vehicle: saline) was 93 % of control and the T/C [19] was 106 % of control.
